Measured values reported in publication PMC12921516 (ACS Bio & Med Chem Au, 2025).
“Also recorded” adds a separate entry of the source.

Legend:
hTCPTP1–415 = target: T1, hTCPTP1–415 (Homo sapiens, UniProt P17706); assay: TCPTP inhibitory activity; assay type: biochemical; conditions: pNPP substrate; tested up to 100 μM
T1 construct: h TCPTP 1–415 IC 50 (μM ± S.D); made in house
T1 sequence (P17706 1-415): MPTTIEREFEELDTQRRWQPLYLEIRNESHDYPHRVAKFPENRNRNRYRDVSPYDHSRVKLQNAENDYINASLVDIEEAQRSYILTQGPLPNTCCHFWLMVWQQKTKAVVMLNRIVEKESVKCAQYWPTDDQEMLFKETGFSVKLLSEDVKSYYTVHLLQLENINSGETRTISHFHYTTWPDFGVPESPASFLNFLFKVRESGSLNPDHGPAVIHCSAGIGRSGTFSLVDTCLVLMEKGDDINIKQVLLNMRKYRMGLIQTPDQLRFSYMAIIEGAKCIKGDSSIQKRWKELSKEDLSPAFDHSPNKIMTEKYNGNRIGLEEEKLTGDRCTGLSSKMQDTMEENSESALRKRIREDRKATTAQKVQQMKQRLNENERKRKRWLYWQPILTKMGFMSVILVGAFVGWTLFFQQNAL
Description: The effectiveness and safety of a PTP1B inhibitor primarily depend on its selectivity, given that protein tyrosine phosphatases share significant structural homology within their catalytic domains. […] Ertiprotafib was also included in this study.
Aliquots of 0–10 μL of the test compounds (triplicate) were taken and incubated for 15 min at 37 °C with 85 μL of Tris buffer solution (50 mM, pH 6.8) containing PTP1B enzyme and 5 μL of p-nitrophenyl phosphate substrate (pNPP, 10 mM). The absorbance of the hydrolysis product, p-nitrophenol (pNP), was measured at 405 nm using a 96-microplate absorbance reader (Accuris SmartReader 96). The inhibitory activity was determined according to eq . %enzyme=(A405b/A405c)×100 1 Where: % enzyme is the percentage of inhibition for PTP1B or TCPTP
The IC50 was calculated using regression analysis, eq : %inhibition=A100/1+(I/IC50)^s 2 Where: A100: Maximum inhibition

HepG2 cells = assay: Cell viability of HepG2 with crystal violet; assay type: cell-based, human; conditions: 1, 10, and 30 µM for 24, 48 and 72 h
Description: A 96-well plate was seeded with 3,000 HepG2 cells per well and incubated for 72 h. Subsequently, the cells were treated with test compounds at various concentrations for 24, 48, and 72 h. After incubation, the medium was removed, and 100 μL of 1% glutaraldehyde was added for 15 min. The glutaraldehyde was then removed, and 50 μL of 0.5% crystal violet (dissolved in 25% methanol) was added for 30 min. The crystal violet staining solution was subsequently removed, and the plate was thoroughly rinsed with tap water. The precipitate was dissolved in a 10% acetic acid solution, mixed for 15 min, and the absorbance was measured at 590 nm using a plate reader (xMark Microplate Spectrophotometer, Bio-Rad).
Figure S48. Cell viability assessment by crystal violet staining. HepG2 cell viability was evaluated after treatment with the respective compounds at concentrations of 1 , 10, and 30 µM for 24 , 48 and 72 hours. Bar graphs represent mean ± SEM. No significant differences were detected using ANOVA. […]

normoglycemic CD1 mice = assay: Oral glucose tolerance test (OGTT); assay type: in vivo; conditions: single intragastric dose 50 mg/kg, glucose 2 g/kg
Description: The studies were carried out on compounds 4b, 4g, and 5g using both normoglycemic CD1 mice and a mouse model of noninsulin-dependent diabetes mellitus (NIDDM). An oral glucose tolerance test (OGTT) was conducted on the normoglycemic mice to evaluate the hypoglycemic activity of the compounds, while an insulin tolerance test (ITT) was performed on hyperglycemic CD1 mice to assess the compounds’ capacity to enhance insulin sensitivity in streptozotocin-induced diabetic mice. Pioglitazone and GA were included as positive controls.
Healthy six-week-old male CD-1 mice, weighing between 30 and 40 g, were maintained at a temperature of 25 ± 2 °C, under a 12-h light/dark cycle and 45–65% humidity throughout the experimental period. The mice were provided with a rodent pelleted diet (Harlan Laboratories, Indianapolis, USA) and had access to water ad libitum. Sixteen hours before the experiment, all mice were fasted but still had free access to water. All animal procedures were conducted in accordance with the Mexican Federal Regulations for Animal Experimentation and Care (SAGARPA, NOM-062-ZOO-1999, Mexico) and received approval from the Institutional Animal Care and Use Committee, following guidelines outlined in the US National Institutes of Health publication (No. 85–23, revised 1985).
Animals were categorized into five groups, each consisting of four mice (n = 4). The experimental groups received an oral suspension of compounds 4b, 4g, and 5g, prepared in a 10% Tween 20/water solution, at a dosage of 50 mg/kg body weight. A control group was treated with only the 10% Tween 20 solution. The final group was administered pioglitazone at a dose of 45 mg/kg, which is recognized as a reference drug for insulin sensitization. To evaluate glucose levels, blood samples were collected from the tails of the mice at 0, 30, 60, 90, and 120 min after the administration of the vehicle, test compound, or drug. Blood glucose concentration was measured using a commercial glucometer (Accu-Chek, Performa; Roche) and the enzymatic glucose dehydrogenase method. The percentage variation in glycemia was calculated by comparing the selected postadministration glycemia (G x ) with the initial value (G0) using the following formula: %variationofglycemia=[(Gx−G0)/G0]×100 where G0 represents the initial glycemia values and Gx indicates the glycemia values at +30, + 60, + 90, and +120 min, respectively.
To determine the hypoglycemic effect of the compounds on nondiabetic animals, the compounds 4b, 4g, and 5g were administered intragastrically. Pioglitazone was used as a positive control. After 30 min, five mice/group (CD-1) were subjected to OGTT. The test was performed using glucose (2 g/kg) as substrate.

SMILES | IC50 (hTCPTP1–415) | HepG2 cell viability (HepG2 cells) | hypoglycemic effect in OGTT (normoglycemic CD1 mice)
CC1(C)c2[nH]c3ccc(OC(F)F)cc3c2C[C@]2(C)[C@H]3C(=O)C=C4[C@@H]5C[C@@](C)(C(=O)O)CC[C@]5(C)CC[C@@]4(C)[C@]3(C)CC[C@@H]12 [compound 4b, (20β)-5′-(Difluoromethoxy)-11-oxo-1′H-oleana-2,12-dieno[3,2-b]indol-29-oic Acid] | > 100 µM | No significant differences; also recorded: did not compromise HepG2 cell viability | did not cause hypoglycemia
CC1(C)c2[nH]c3ccc(S(N)(=O)=O)cc3c2C[C@]2(C)[C@H]3C(=O)C=C4[C@@H]5C[C@@](C)(C(=O)O)CC[C@]5(C)CC[C@@]4(C)[C@]3(C)CC[C@@H]12 [compound 4g, (20β)-5′-Sulfamoyl-11-oxo-1′H-oleana-2,12-dieno[3,2-b]indol-29-oic Acid] | > 100 µM | No significant differences | did not cause hypoglycemia
CC1(C)c2c(cnn2-c2ccc(S(N)(=O)=O)cc2)C[C@]2(C)[C@H]3C(=O)C=C4[C@@H]5C[C@@](C)(C(=O)O)CC[C@]5(C)CC[C@@]4(C)[C@]3(C)CC[C@@H]12 [compound 5g, (20β)-11-Oxo-2′-(4-sulfamoylphenyl)-2′H-oleana-2,12-dieno[3,2-c]pyrazol-29-oic Acid] | > 100 µM | No significant differences; also recorded: did not compromise HepG2 cell viability | did not cause hypoglycemia
